{
  "source": "paper PMC3262757",
  "about": "(Chemistry Central Journal, 2011)",
  "key": {"[1]": {"tested_on": "JNK1", "assay_type": "cell-based"}, "[2]": {"tested_on": "JNK2", "assay_type": "cell-based"}},
  "data": [
    {"compound": "CCOc1nc(NC(=O)Cc2cc(OC)c(NC(C)=O)cc2OC)cc(N)c1C#N", "note": "[compound 2, 2-(4-acetylamino-2,5-dimethoxyphenyl)-N-(4-amino-5-cyano-6-ethoxypyridin-2-yl)acetamide]", "values": [
      {"measurement": "IC50", "setting": "[1]", "result": "~1500", "unit": "nM"},
      {"measurement": "IC50", "setting": "[2]", "result": "~1500", "unit": "nM"}
    ]}
  ]
}
